Laboratory results taken from ChEMBL document CHEMBL1201862, “PubChem BioAssay data set” (2004).
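96-well plates; 48 h exposure; 5 concentrations. Endpoints by linear interpolation between flanking doses. Not reached: highest tested concentration assigned. The concentration for 50% growth inhibition is given as GI50.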 Active and inactive are the calls of the source. No stated cut-off is given here; in the data, active = GI50 up to about 1.1 µM and inactive = higher.

Key:
Test in all cases: inhibition of tumour cell growth, NCI panel, 48 h
786-0 = tested on: 786-0
A498 = tested on: A498
A549 = tested on: A549
ACHN = tested on: ACHN
BT-549 = tested on: BT-549
CAKI-1 = tested on: CAKI-1
CCRF-CEM = tested on: CCRF-CEM
COLO 205 = tested on: COLO 205
EKVX = tested on: EKVX
HCC 2998 = tested on: HCC 2998
HCT-116 = tested on: HCT-116
HCT-15 = tested on: HCT-15
HL-60 = tested on: HL-60
HOP-62 = tested on: HOP-62
HOP-92 = tested on: HOP-92
HT-29 = tested on: HT-29
Hs-578T = tested on: Hs-578T
IGROV-1 = tested on: IGROV-1
K562 = tested on: K562
KM12 = tested on: KM12
LOX IMVI = tested on: LOX IMVI
M14 = tested on: M14
MCF7 = tested on: MCF7
MDA-MB-231 = tested on: MDA-MB-231
MDA-MB-435 = tested on: MDA-MB-435
MDA-N = tested on: MDA-N
MOLT-4 = tested on: MOLT-4
Malme-3M = tested on: Malme-3M
NCI-H226 = tested on: NCI-H226
NCI-H460 = tested on: NCI-H460
NCI-H522 = tested on: NCI-H522
NCI/ADR-RES = tested on: NCI/ADR-RES
OVCAR-3 = tested on: OVCAR-3
OVCAR-4 = tested on: OVCAR-4
OVCAR-5 = tested on: OVCAR-5
OVCAR-8 = tested on: OVCAR-8
PC-3 = tested on: PC-3
RPMI-8226 = tested on: RPMI-8226
RXF 393 = tested on: RXF 393
SF-268 = tested on: SF-268
SF-295 = tested on: SF-295
SF-539 = tested on: SF-539
SK-MEL-28 = tested on: SK-MEL-28
SK-MEL-2 = tested on: SK-MEL-2
SK-MEL-5 = tested on: SK-MEL-5
SK-OV-3 = tested on: SK-OV-3
SN12C = tested on: SN12C
SNB-19 = tested on: SNB-19
SNB-75 = tested on: SNB-75
SW-620 = tested on: SW-620
TK-10 = tested on: TK-10
U-251 = tested on: U-251
UACC-257 = tested on: UACC-257
UACC-62 = tested on: UACC-62
DU-145 = tested on: DU-145
NCI-H23 = tested on: NCI-H23
SR = tested on: SR
T47D = tested on: T47D
UO-31 = tested on: UO-31

## COc1ccc(-c2c(C#N)c(-c3ccc(C)cc3)n(NS(=O)(=O)c3ccccc3)c(=O)c2C#N)cc1
786-0
  GI50: 51.5 µM (inactive)
A498
  GI50: 59 µM (inactive)
A549
  GI50: 45.9 µM (inactive)
ACHN
  GI50: 45 µM (inactive)
BT-549
  GI50: 25.2 µM (inactive)
CAKI-1
  GI50: 74.1 µM (inactive)
CCRF-CEM
  GI50: 23 µM (inactive)
COLO 205
  GI50: > 100 µM (inactive)
EKVX
  GI50: 53.5 µM (inactive)
HCC 2998
  GI50: 45.8 µM (inactive)
HCT-116
  GI50: 42.6 µM (inactive)
HCT-15
  GI50: 39.3 µM
HL-60
  GI50: 19 µM (inactive)
HOP-62
  GI50: 51.3 µM (inactive)
HOP-92
  GI50: 38.8 µM (inactive)
HT-29
  GI50: 47.5 µM (inactive)
Hs-578T
  GI50: 33.7 µM (inactive)
IGROV-1
  GI50: 35.5 µM (inactive)
K562
  GI50: 60.4 µM (inactive)
KM12
  GI50: 46.3 µM (inactive)
LOX IMVI
  GI50: 30.3 µM (inactive)
M14
  GI50: 48.6 µM (inactive)
MCF7
  GI50: 28.9 µM (inactive)
MDA-MB-231
  GI50: > 100 µM (inactive)
MDA-MB-435
  GI50: 73.6 µM (inactive)
MDA-N
  GI50: 70.8 µM (inactive)
MOLT-4
  GI50: 19 µM (inactive)
Malme-3M
  GI50: > 100 µM (inactive)
NCI-H226
  GI50: > 100 µM (inactive)
NCI-H460
  GI50: 45.8 µM (inactive)
NCI-H522
  GI50: 87.7 µM (inactive)
NCI/ADR-RES
  GI50: 41.5 µM (inactive)
OVCAR-3
  GI50: 30.9 µM (inactive)
OVCAR-4
  GI50: 37.8 µM (inactive)
OVCAR-5
  GI50: > 100 µM (inactive)
OVCAR-8
  GI50: 58.1 µM (inactive)
PC-3
  GI50: 35 µM (inactive)
RPMI-8226
  GI50: 13.3 µM (inactive)
RXF 393
  GI50: 36.2 µM (inactive)
SF-268
  GI50: 80.4 µM (inactive)
SF-295
  GI50: 32.7 µM (inactive)
SF-539
  GI50: 36.6 µM (inactive)
SK-MEL-28
  GI50: 48.1 µM (inactive)
SK-MEL-2
  GI50: 50.8 µM (inactive)
SK-MEL-5
  GI50: 19.5 µM (inactive)
SK-OV-3
  GI50: 84.3 µM (inactive)
SN12C
  GI50: 65.3 µM (inactive)
SNB-19
  GI50: 58.5 µM (inactive)
SNB-75
  GI50: > 100 µM (inactive)
SW-620
  GI50: 46.7 µM (inactive)
TK-10
  GI50: 79.8 µM (inactive)
U-251
  GI50: 42.2 µM (inactive)
UACC-257
  GI50: > 100 µM (inactive)
UACC-62
  GI50: 38.5 µM (inactive)

## O=c1oc2cccnc2n1CCCCN1CCN(c2ccccc2)CC1
786-0
  GI50: > 100 µM (inactive)
A498
  GI50: > 100 µM (inactive)
A549
  GI50: > 100 µM (inactive)
ACHN
  GI50: > 100 µM (inactive)
CAKI-1
  GI50: > 100 µM (inactive)
CCRF-CEM
  GI50: > 100 µM (inactive)
DU-145
  GI50: > 100 µM (inactive)
EKVX
  GI50: > 100 µM (inactive)
HCC 2998
  GI50: > 100 µM (inactive)
HCT-116
  GI50: > 100 µM (inactive)
HCT-15
  GI50: > 100 µM
HL-60
  GI50: > 100 µM (inactive)
HOP-62
  GI50: > 100 µM (inactive)
HOP-92
  GI50: > 100 µM (inactive)
HT-29
  GI50: > 100 µM (inactive)
Hs-578T
  GI50: > 100 µM (inactive)
IGROV-1
  GI50: > 100 µM (inactive)
K562
  GI50: > 100 µM (inactive)
LOX IMVI
  GI50: > 100 µM (inactive)
M14
  GI50: > 100 µM (inactive)
MCF7
  GI50: > 100 µM (inactive)
MDA-MB-231
  GI50: > 100 µM (inactive)
MDA-MB-435
  GI50: > 100 µM (inactive)
MDA-N
  GI50: > 100 µM (inactive)
MOLT-4
  GI50: > 100 µM (inactive)
Malme-3M
  GI50: 89.1 µM (inactive)
NCI-H23
  GI50: > 100 µM (inactive)
NCI-H460
  GI50: > 100 µM (inactive)
NCI-H522
  GI50: > 100 µM (inactive)
NCI/ADR-RES
  GI50: > 100 µM (inactive)
OVCAR-3
  GI50: > 100 µM (inactive)
OVCAR-4
  GI50: > 100 µM (inactive)
OVCAR-5
  GI50: > 100 µM (inactive)
OVCAR-8
  GI50: > 100 µM (inactive)
PC-3
  GI50: > 100 µM (inactive)
RPMI-8226
  GI50: > 100 µM (inactive)
RXF 393
  GI50: > 100 µM (inactive)
SF-268
  GI50: > 100 µM (inactive)
SF-295
  GI50: > 100 µM (inactive)
SF-539
  GI50: > 100 µM (inactive)
SK-MEL-28
  GI50: > 100 µM (inactive)
SK-MEL-2
  GI50: > 100 µM (inactive)
SK-MEL-5
  GI50: > 100 µM (inactive)
SK-OV-3
  GI50: > 100 µM (inactive)
SNB-19
  GI50: > 100 µM (inactive)
SR
  GI50: > 100 µM (inactive)
SW-620
  GI50: > 100 µM (inactive)
T47D
  GI50: > 100 µM (inactive)
TK-10
  GI50: > 100 µM (inactive)
U-251
  GI50: > 100 µM (inactive)
UACC-257
  GI50: > 100 µM (inactive)
UO-31
  GI50: > 100 µM (inactive)

## CN(C)CCCNC(=O)c1cc(NC(=O)c2cc(NC(=O)[C@H]3C[C@@H]3C(=O)Nc3cc(C(=O)Nc4cc(C(=O)NCCCN(C)C)n(C)c4)n(C)c3)cn2C)cn1C
786-0
  GI50: > 100 µM (inactive)
A549
  GI50: > 100 µM (inactive)
ACHN
  GI50: > 100 µM (inactive)
BT-549
  GI50: > 100 µM (inactive)
CAKI-1
  GI50: > 100 µM (inactive)
CCRF-CEM
  GI50: > 100 µM (inactive)
COLO 205
  GI50: > 100 µM (inactive)
DU-145
  GI50: > 100 µM (inactive)
EKVX
  GI50: > 100 µM (inactive)
HCC 2998
  GI50: > 100 µM (inactive)
HCT-116
  GI50: > 100 µM (inactive)
HCT-15
  GI50: > 100 µM
HL-60
  GI50: > 100 µM (inactive)
HOP-62
  GI50: > 100 µM (inactive)
HOP-92
  GI50: 3.24 µM (inactive)
HT-29
  GI50: > 100 µM (inactive)
IGROV-1
  GI50: > 100 µM (inactive)
K562
  GI50: > 100 µM (inactive)
KM12
  GI50: > 100 µM (inactive)
LOX IMVI
  GI50: > 100 µM (inactive)
M14
  GI50: > 100 µM (inactive)
MCF7
  GI50: > 100 µM (inactive)
MDA-MB-231
  GI50: > 100 µM (inactive)
MDA-MB-435
  GI50: > 100 µM (inactive)
MOLT-4
  GI50: > 100 µM (inactive)
Malme-3M
  GI50: > 100 µM (inactive)
NCI-H226
  GI50: > 100 µM (inactive)
NCI-H23
  GI50: > 100 µM (inactive)
NCI-H460
  GI50: > 100 µM (inactive)
NCI-H522
  GI50: 65 µM (inactive)
NCI/ADR-RES
  GI50: > 100 µM (inactive)
OVCAR-4
  GI50: > 100 µM (inactive)
OVCAR-5
  GI50: > 100 µM (inactive)
OVCAR-8
  GI50: > 100 µM (inactive)
PC-3
  GI50: > 100 µM (inactive)
RPMI-8226
  GI50: > 100 µM (inactive)
SF-268
  GI50: > 100 µM (inactive)
SF-295
  GI50: > 100 µM (inactive)
SF-539
  GI50: > 100 µM (inactive)
SK-MEL-2
  GI50: > 100 µM (inactive)
SK-MEL-5
  GI50: > 100 µM (inactive)
SN12C
  GI50: > 100 µM (inactive)
SNB-19
  GI50: > 100 µM (inactive)
SNB-75
  GI50: > 100 µM (inactive)
SR
  GI50: > 100 µM (inactive)
SW-620
  GI50: > 100 µM (inactive)
TK-10
  GI50: > 10 µM (inactive)
U-251
  GI50: > 100 µM (inactive)
UACC-257
  GI50: > 100 µM (inactive)

## COc1cccc(-c2cc(O)c3cc(N)ccc3n2)c1
786-0
  GI50: 4.05 µM (inactive)
A549
  GI50: 5.94 µM (inactive)
ACHN
  GI50: 7.13 µM (inactive)
BT-549
  GI50: 5.81 µM (inactive)
CCRF-CEM
  GI50: 2.25 µM (inactive)
COLO 205
  GI50: 4.27 µM (inactive)
EKVX
  GI50: > 100 µM (inactive)
HCC 2998
  GI50: 6.55 µM (inactive)
HCT-15
  GI50: 3.47 µM
HOP-62
  GI50: 5.92 µM (inactive)
HOP-92
  GI50: 3.44 µM (inactive)
HT-29
  GI50: 3.22 µM (inactive)
Hs-578T
  GI50: 2.09 µM (inactive)
IGROV-1
  GI50: 5.06 µM (inactive)
KM12
  GI50: 3.62 µM (inactive)
M14
  GI50: 4.63 µM (inactive)
MCF7
  GI50: 3.94 µM (inactive)
MDA-MB-231
  GI50: 25.2 µM (inactive)
MDA-MB-435
  GI50: 0.834 µM (active)
MOLT-4
  GI50: 3.71 µM (inactive)
Malme-3M
  GI50: 2.14 µM (inactive)
NCI-H23
  GI50: 9.91 µM (inactive)
NCI-H460
  GI50: 3.75 µM (inactive)
NCI-H522
  GI50: 2.39 µM (inactive)
NCI/ADR-RES
  GI50: 2.54 µM (inactive)
OVCAR-5
  GI50: > 100 µM (inactive)
OVCAR-8
  GI50: 9.16 µM (inactive)
PC-3
  GI50: 2.09 µM (inactive)
SF-539
  GI50: 2.35 µM (inactive)
SK-MEL-28
  GI50: 7.62 µM (inactive)
SK-MEL-5
  GI50: 2.88 µM (inactive)
SK-OV-3
  GI50: 2.3 µM (inactive)
SN12C
  GI50: 7.05 µM (inactive)
SNB-19
  GI50: 5.26 µM (inactive)
SNB-75
  GI50: 2.75 µM (inactive)
SW-620
  GI50: 1.94 µM (inactive)
TK-10
  GI50: 6.79 µM (inactive)
UACC-62
  GI50: 2.92 µM (inactive)
